Laboratory results: paper PMC7116137 (Molecular pharmacology, 2020)

Key:
[1] = target: complex of dopamine D1-receptor and wild-type A1R (Homo sapiens, UniProt P21728+P30542); assay: BRET between D1R-NLuc and eYFP-tagged A1-receptor in HEK293 cells; type: cell-based; settings: incubation with ligand 10 μM, response estimated at saturation
wild-type A1R = target: T1, wild-type A1R (Homo sapiens, UniProt P30542); assay: [35S]GTPγS binding to membranes of HEK293 cells; type: biochemical; settings: agonist-stimulated, curve fit; wt A1R
T1 sequence (P30542 1-326): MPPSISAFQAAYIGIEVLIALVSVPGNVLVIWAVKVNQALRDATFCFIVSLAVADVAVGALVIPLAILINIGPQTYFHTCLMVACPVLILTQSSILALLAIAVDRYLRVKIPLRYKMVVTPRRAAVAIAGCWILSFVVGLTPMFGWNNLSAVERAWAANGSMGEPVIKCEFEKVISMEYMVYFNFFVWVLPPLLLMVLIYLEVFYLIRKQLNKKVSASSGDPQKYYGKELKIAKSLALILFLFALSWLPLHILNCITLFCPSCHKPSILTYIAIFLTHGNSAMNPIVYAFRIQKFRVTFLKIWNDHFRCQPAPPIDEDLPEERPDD

complex of dopamine D1-receptor and wild-type A1R, sequence (P21728 whole entry, one chain of several): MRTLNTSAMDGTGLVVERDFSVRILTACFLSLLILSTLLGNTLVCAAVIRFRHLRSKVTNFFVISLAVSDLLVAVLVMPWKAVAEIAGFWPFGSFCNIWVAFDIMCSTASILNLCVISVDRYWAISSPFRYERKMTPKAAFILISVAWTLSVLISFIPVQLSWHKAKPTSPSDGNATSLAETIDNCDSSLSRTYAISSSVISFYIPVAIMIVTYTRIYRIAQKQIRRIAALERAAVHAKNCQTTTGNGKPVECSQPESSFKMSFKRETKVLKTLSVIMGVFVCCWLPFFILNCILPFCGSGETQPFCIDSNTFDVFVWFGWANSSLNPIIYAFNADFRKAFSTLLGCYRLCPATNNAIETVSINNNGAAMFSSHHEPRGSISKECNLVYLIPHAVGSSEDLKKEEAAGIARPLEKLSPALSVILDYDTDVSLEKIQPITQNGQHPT

OC[C@H]1O[C@@H](n2cnc3c(NC4CCCC4)ncnc32)[C@H](O)[C@@H]1O [CPA, N6-cyclopentyladenosine]
Maximum BRET signal [1]: 218 ± 64 milli BRET
maximal [35S]GTPγS binding (95% confidence interval) (wild-type A1R): 91.5 to 101.3 fmol/mg
